Assay results published in patent US20180194762A1 (Pharmacyclics LLC, priority 2017, published 2018).

What was measured:
Type in all cases: biochemical
[1] = molecular target: T1, Btk (Homo sapiens, UniProt Q06187); assay: Btk in vitro inhibitory activity (one of Method A TR-FRET, Method B electrophoretic mobility shift, Method C radiometric filter binding); settings: wild-type Btk; read-out: Btk-WT IC50
T1 construct: purified from insect cells as a full-length construct containing a N-terminal 6X-His tag; His6 (N); made in house; host or cells: insect cells (Method C)
T1 sequence (Q06187 whole entry): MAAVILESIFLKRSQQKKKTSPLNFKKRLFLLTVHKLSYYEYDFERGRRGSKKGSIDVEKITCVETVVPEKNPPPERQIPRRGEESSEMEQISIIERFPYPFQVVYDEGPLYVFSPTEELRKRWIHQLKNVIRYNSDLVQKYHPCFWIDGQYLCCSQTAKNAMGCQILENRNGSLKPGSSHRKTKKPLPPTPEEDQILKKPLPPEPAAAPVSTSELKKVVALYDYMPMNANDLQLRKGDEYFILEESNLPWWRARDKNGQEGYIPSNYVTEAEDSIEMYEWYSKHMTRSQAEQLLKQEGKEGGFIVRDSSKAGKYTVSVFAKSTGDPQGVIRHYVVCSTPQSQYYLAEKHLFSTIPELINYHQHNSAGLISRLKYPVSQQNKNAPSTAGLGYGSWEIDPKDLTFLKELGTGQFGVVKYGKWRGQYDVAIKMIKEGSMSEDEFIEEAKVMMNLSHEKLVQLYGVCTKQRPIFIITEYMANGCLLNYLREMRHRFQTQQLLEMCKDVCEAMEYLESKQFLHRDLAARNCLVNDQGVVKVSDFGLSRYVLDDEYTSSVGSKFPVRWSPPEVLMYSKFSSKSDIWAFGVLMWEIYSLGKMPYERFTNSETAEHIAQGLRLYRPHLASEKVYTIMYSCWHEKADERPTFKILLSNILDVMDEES
Method in brief: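 Method A: TR-FRET with 0.5 nM Btk at [ATP]=Km, EDTA-quenched, 665/615 nm ratio; Ki(app) converted to IC50. Method B: 1 nM full-length His6 human BTK, 1 μM FAM peptide, pH 7.5, mobility-shift product/sum ratio, 12-point 4-parameter fit. Method C: radiometric filter binding, 8 nM His-tagged BTK, 0.2 mg/mL poly-Glu-Tyr.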

[2] = molecular target: T2, TEC (Homo sapiens, UniProt P42680); assay: Inhibition of a panel of kinases (in vitro HotSpot kinase assay, 33P-ATP, 1 μM ATP); settings: for IC50: HotSpot kinase assay, 1 μM ATP; for TEC/Btk: ratio of TEC IC50 to Btk IC50 (selectivity)
T2 sequence (P42680 1-631): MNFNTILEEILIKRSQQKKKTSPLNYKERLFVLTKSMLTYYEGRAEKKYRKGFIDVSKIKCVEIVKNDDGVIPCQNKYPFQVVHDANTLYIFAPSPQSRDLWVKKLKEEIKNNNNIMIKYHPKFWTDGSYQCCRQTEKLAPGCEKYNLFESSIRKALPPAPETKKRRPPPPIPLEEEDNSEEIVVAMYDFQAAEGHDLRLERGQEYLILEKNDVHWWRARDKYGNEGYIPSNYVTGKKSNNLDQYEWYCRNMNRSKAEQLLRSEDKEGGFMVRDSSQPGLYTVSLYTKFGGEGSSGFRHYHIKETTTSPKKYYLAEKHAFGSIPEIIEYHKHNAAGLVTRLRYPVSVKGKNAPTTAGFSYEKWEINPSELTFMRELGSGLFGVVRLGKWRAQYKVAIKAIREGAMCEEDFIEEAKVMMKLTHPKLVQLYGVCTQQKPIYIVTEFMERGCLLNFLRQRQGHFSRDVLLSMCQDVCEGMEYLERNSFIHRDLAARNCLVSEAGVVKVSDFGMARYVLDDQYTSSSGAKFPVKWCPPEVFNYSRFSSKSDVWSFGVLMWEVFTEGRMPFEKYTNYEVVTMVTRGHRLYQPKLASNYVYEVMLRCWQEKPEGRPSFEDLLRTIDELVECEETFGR
Method in brief: (§1)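 Purified kinase enzymes were incubated with an appropriate substrate and 33P-labelled ATP at 1 μM ATP. Inhibition was measured radiometrically from incorporation of the 33P label.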

[3] = molecular target: T3, panel of kinases (Homo sapiens, UniProt P51813); assay: Inhibition of a panel of kinases (in vitro HotSpot kinase assay, 33P-ATP, 1 μM ATP), other kinases; settings: BMX wild-type, read-out: BMX-WT IC50
T3 sequence (P51813 1-675): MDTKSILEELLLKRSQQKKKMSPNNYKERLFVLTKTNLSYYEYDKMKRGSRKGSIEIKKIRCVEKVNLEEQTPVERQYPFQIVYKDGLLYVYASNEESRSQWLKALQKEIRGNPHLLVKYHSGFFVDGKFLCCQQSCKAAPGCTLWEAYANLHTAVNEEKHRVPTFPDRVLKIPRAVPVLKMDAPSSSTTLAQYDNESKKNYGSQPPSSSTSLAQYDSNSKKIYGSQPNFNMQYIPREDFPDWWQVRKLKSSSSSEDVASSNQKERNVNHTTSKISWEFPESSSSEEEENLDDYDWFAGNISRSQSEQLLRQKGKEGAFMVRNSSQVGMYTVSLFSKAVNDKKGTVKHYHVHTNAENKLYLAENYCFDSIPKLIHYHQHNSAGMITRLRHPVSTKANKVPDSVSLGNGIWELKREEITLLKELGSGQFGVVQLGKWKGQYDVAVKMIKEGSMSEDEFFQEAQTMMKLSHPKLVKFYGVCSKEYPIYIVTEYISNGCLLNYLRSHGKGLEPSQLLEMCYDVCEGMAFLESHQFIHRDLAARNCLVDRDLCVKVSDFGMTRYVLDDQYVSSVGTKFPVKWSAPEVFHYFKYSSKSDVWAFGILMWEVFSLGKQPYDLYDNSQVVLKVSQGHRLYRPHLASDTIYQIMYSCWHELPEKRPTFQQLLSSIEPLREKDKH
Method in brief: as §1

Compound | IC50 [1] [nM] | IC50 [2] [nM] | TEC/Btk [2] | IC50 [3] [nM]
CC(C)(C)c1nc(C(=O)NCc2ccc(-c3ccnc4[nH]nc(N5CCC[C@H](C(=O)O)C5)c34)cc2F)no1 [Example 252, (3S)-1-[4-(4-{[(5-tert-butyl-1,2,4-oxadiazole-3-carbonyl)amino]methyl}-3-fluorophenyl)-1H-pyrazolo[3,4-b]pyridin-3-yl]piperidine-3-carboxylic acid] | 0.511 | 386 | 755 | 529
CC(C)(C)c1noc(C(=O)NCc2ccc(-c3ccnc4[nH]nc(C5CC5)c34)cc2F)n1 [Example 255, 3-tert-butyl-N-{[4-(3-cyclopropyl-1H-pyrazolo[3,4-b]pyridin-4-yl)-2-fluorophenyl]methyl}-1,2,4-oxadiazole-5-carboxamide] | 1.26 | 1630 | 1294 | 1360
C[C@H]1CC[C@@H](Nc2n[nH]c3nccc(-c4ccc(CNC(=O)c5noc(C(C)(C)C)n5)cc4)c23)CN1C(=O)N(C)C [Example 256, (2S,5R)-5-{[4-(4-{[(5-tert-butyl-1,2,4-oxadiazole-3-carbonyl)amino]methyl}phenyl)-1H-pyrazolo[3,4-b]pyridin-3-yl]amino}-N,N,2-trimethylpiperidine-1-carboxamide] | 8.35 | 3590 | 430 | 5440
CC(C)(C)c1nc(C(=O)NCc2ccc(-c3ccnc4[nH]nc(NC5CCCC5)c34)cc2F)no1 [Example 257, 5-tert-butyl-N-({4-[3-(cyclopentylamino)-1H-pyrazolo[3,4-b]pyridin-4-yl]-2-fluorophenyl}methyl)-1,2,4-oxadiazole-3-carboxamide] | 10.1 | 5070 | 502 | 3960
C=CC(=O)N1CC[C@@H](Nc2n[nH]c3nccc(-c4cccc(NC(=O)c5ccc(C(C)(C)C)cc5)c4)c23)C1 [Example 263, 4-tert-butyl-N-[3-(3-{[(3R)-1-(prop-2-enoyl)pyrrolidin-3-yl]amino}-1H-pyrazolo[3,4-b]pyridin-4-yl)phenyl]benzamide] | 11.6 | 1070 | 092 | 440
C=CC(=O)N1CC[C@@H](Nc2n[nH]c3nccc(-c4cccc(NC(=O)c5noc(C(C)(C)C)n5)c4)c23)C1 [Example 265, 5-tert-butyl-N-[3-(3-{[(3R)-1-(prop-2-enoyl)pyrrolidin-3-yl]amino}-1H-pyrazolo[3,4-b]pyridin-4-yl)phenyl]-1,2,4-oxadiazole-3-carboxamide] | 200 | 2780 | 014 | 875
C=CC(=O)N1CC[C@@H](Nc2n[nH]c3nccc(-c4cccc(NC(=O)c5noc(C(C)(C)C)n5)c4C)c23)C1 [Example 267, 5-tert-butyl-N-[2-methyl-3-(3-{[(3R)-1-(prop-2-enoyl)pyrrolidin-3-yl]amino}-1H-pyrazolo[3,4-b]pyridin-4-yl)phenyl]-1,2,4-oxadiazole-3-carboxamide] | 164 | 901 | 005 | 553
C=CC(=O)N1CCC[C@@H](Nc2n[nH]c3nccc(-c4ccc(C5(NC(=O)c6noc(C(C)(C)C)n6)CC5)cc4)c23)C1 [Example 270, 5-tert-butyl-N-{1-[4-(3-{[(3R)-1-(prop-2-enoyl)piperidin-3-yl]amino}-1H-pyrazolo[3,4-b]pyridin-4-yl)phenyl]cyclopropyl}-1,2,4-oxadiazole-3-carboxamide] | 0.792 | 613 | 774 | 312
C=CC(=O)N1CC[C@@H](Oc2n[nH]c3nccc(-c4ccc(CNC(=O)c5noc(C(C)(C)C)n5)c(F)c4)c23)C1 [Example 272, 5-tert-butyl-N-{[2-fluoro-4-(3-{[(3R)-1-(prop-2-enoyl)pyrrolidin-3-yl]oxy}-1H-pyrazolo[3,4-b]pyridin-4-yl)phenyl]methyl}-1,2,4-oxadiazole-3-carboxamide] | 0.0732 | 18.9 | 258 | 39.2
C=CC(=O)N1CCC(Cc2n[nH]c3nccc(-c4ccc(CNC(=O)c5noc(C(C)(C)C)n5)c(F)c4)c23)C1 (centres unmarked) [Example 275, 5-tert-butyl-N-{[2-fluoro-4-(3-{[1-(prop-2-enoyl)pyrrolidin-3-yl]methyl}-1H-pyrazolo[3,4-b]pyridin-4-yl)phenyl]methyl}-1,2,4-oxadiazole-3-carboxamide] | 0.559 | 338 | 605 | 158
C=CC(=O)N1CCC(c2n[nH]c3nccc(-c4ccc(CNC(=O)c5noc(C(C)(C)C)n5)c(F)c4)c23)C1 (centres unmarked) [Example 279, 5-tert-butyl-N-[(2-fluoro-4-{3-[1-(prop-2-enoyl)pyrrolidin-3-yl]-1H-pyrazolo[3,4-b]pyridin-4-yl}phenyl)methyl]-1,2,4-oxadiazole-3-carboxamide] | 0.0922 | 14.9 | 162 | 8.95
CC(C)(C)c1nc(C(=O)NCc2ccc(-c3ccnc4[nH]nc(C5=CCNC5)c34)cc2F)no1 [Example 280, 5-tert-butyl-N-({4-[3-(2,5-dihydro-1H-pyrrol-3-yl)-1H-pyrazolo[3,4-b]pyridin-4-yl]-2-fluorophenyl}methyl)-1,2,4-oxadiazole-3-carboxamide] | 8.84 | 2150 | 243 | 1720
C=CC(=O)N1CC=C(c2n[nH]c3nccc(-c4ccc(CNC(=O)c5noc(C(C)(C)C)n5)c(F)c4)c23)C1 [Example 281, 5-tert-butyl-N-[(2-fluoro-4-{3-[1-(prop-2-enoyl)-2,5-dihydro-1H-pyrrol-3-yl]-1H-pyrazolo[3,4-b]pyridin-4-yl}phenyl)methyl]-1,2,4-oxadiazole-3-carboxamide] | 0.0568 | 4.92 | 87 | 2.98
CN(C)C(=O)N1CC[C@@H](Oc2n[nH]c3nccc(-c4ccc(CNC(=O)c5noc(C(C)(C)C)n5)c(F)c4)c23)C1 [Example 282, 5-tert-butyl-N-{[4-(3-{[(3R)-1-(dimethylcarbamoyl)pyrroli-din-3-yl]oxy}-1H-pyrazolo[3,4-b]pyridin-4-yl)-2-fluorophenyl]methyl}-1,2,4-oxadiazole-3-carboxamide] | 10.4 | 5240 | 504 | 6080
CC(C)(C)c1noc(C(=O)NCc2ccc(-c3ccnc4[nH]nc(OC5CCNC5)c34)cc2F)n1 (centres unmarked) [Example 283, 3-tert-butyl-N-[(2-fluoro-4-{3-[(pyrrolidin-3-yl)oxy]-1H-pyrazolo[3,4-b]pyridin-4-yl}phenyl)methyl]-1,2,4-oxadiazole-5-carboxamide] | 10.9 | 7160 | – | 2970
CC(=O)N1CC[C@H](Oc2n[nH]c3nccc(-c4ccc(CNC(=O)c5nc(C(C)(C)C)no5)c(F)c4)c23)C1 [Example 284, (S)-N-[(4-{3-[(1-acetylpyrrolidin-3-yl)oxy]-1H-pyrazolo[3,4-b]pyridin-4-yl}-2-fluorophenyl)methyl]-3-tert-butyl-1,2,4-oxadiazole-5-carboxamide] | 3.19 | 2250 | – | 2920
